Measurements: patent US20110123617A1, “CLIOQUINOL FOR THE TREATMENT OF HEMATOLOGICAL MALIGNANCIES” (priority 2007, published 2011)

How the values were obtained:
[1] = tested on: p21; assay: Immunoblotting of p21; type: cell-based; conditions: low micromolar concentrations
From the text: (§1) A) Effect of increasing concentrations of clioquinol on LP1 and MY5 multiple myeloma cells at twenty hours after clioquinol treatment; determined by SDS-PAGE immunoblotting. B) Effect of increasing concentrations of clioquinol on the G0/G1 ratio in AML3, U937, LP1 and MY5 cells at twenty hours after clioquinol treatment; determined by PI staining and flow cytometry. To prepare cytosolic extracts, NIH3T3 cells and myeloma cells were washed with phosphate-buffered saline (PBS, pH 7.4) and suspending in lysis buffer [10 mM Tris (pH 7.4), 150 mM NaCl, 0.1% Triton X-100, 0.5% sodium deoxycholate, and 5 mM EDTA] containing protease inhibitors (Complete tablets, Roche, Indianapolis, Ind.). Protein concentrations were determined by the Bradford assay. Immunoblot assays were performed by subjecting equal amounts of protein to SDS-PAGE gels followed by transfer to Nitrocellulose membranes. Membranes were probed with polyclonal rabbit anti-human cyclin D2 (0.5 μg/ml, both from Santa Cruz Biotech, Santa Cruz, Calif.), or monoclonal mouse-anti human p21 (1:200 v/v, Santa Cruz Biotech), monoclonal mouse-anti human p27 (1:2,500 v/v BD Transduction Laboratories), polyclonal mouse-anti human ubiquitin (1:2,000 v/v Calbiochem) and monoclonal mouse-anti-β-actin (1:10,000 v/v) (Sigma, St. Lois, Mo.). […] Detection was performed by the Enhanced Chemical Luminescence (ECL) method (Pierce, Rockford, Ill.).

[2] = tested on: chymotrypsin-like activity of the proteasome; assay: Proteasome activity after treatment of intact cell lines; type: cell-based; conditions: intact leukemia and myeloma cell lines
Experimental: A) Proteasome activity of MDAY-D2 and JJN3 cellular extracts after two hours of treatment with clioquinol (CQ), CuCl2 (Cu), or an equimolar concentration of CQ and Cu. After treatment, the preferential chymotrypsin-like substrate Suc-LLVY-AMC was added and the rate of free AMC was measured over time with a florescent spectrophotometric plate reader (excitation=380 nm, emission=460 nm). B) Proteasome activity of intact MDAY-D2 and JJN3 cells after two hours of treatment with clioquinol (CQ), CuCl2 (Cu), or an equimolar concentration of CQ and Cu. After treatment, the preferential chymotrypsin-like substrate Suc-LLVY-AMC was added and the rate of free AMC was measured over time with a florescent spectrophotometric plate reader (excitation=380 nm, emission=460 nm). Cellular proteins were extracted from cells with lysis buffer (50 mM HEPES pH 7.5, 150 mM NaCl, 2 mM ATP, and 1% Triton X-100). The chymotrypsin-like activity of the proteasome was measured by incubating equal amounts of protein with the preferential chymotrypsin-like substrate Suc-LLVY-AMC in assay buffer (50 mM Tris-HCl, pH 7.5, 150 mM NaCl) for two hours. After incubation, […] and the rate of free AMC was measured over time with a florescent spectrophotometric plate reader (excitation=380 nm, emission=460 nm). […]

[3] = tested on: normal hematopoietic cells; assay: Cell viability (MTS assay), primary normal hematopoietic cells; type: cell-based, human; conditions: normal hematopoietic cells supplemented with copper
Experimental: (§2) Cell viability of leukemia, myeloma, solid tumor and primary cells forty-eight hours after clioquinol treatment by MTS assay. Cell viability was assessed with the CellTiter96® Aqueous Non-Radioactive Assay kit according to manufactures' instructions (Promega). Apoptosis was measured by flow cytometry to detect cell surface Annexin V expression and propidium iodide (PI) uptake (Biovision, Mountain View, Calif., USA) as previously described (20) The inventors tested the effects of clioquinol on the viability of acute leukemia (n=7), myeloma (n=14), and solid tumor (n=5) cell lines as well as primary AML samples (n=6) and primary normal hematopoietic cells (n=3). Forty-eight hours after incubation, clioquinol induced cell death in 6/7 AML, 12/14 myeloma, 0/5 solid tumor, […] and 0/3 normal hematopoietic cells with an IC50 <20 μM (FIG. 5). Of note, after oral administration of clioquinol, trough serum concentrations of 20 μM can be achieved in patients (32).

[4] = tested on: proteasome in primary AML cells; assay: Proteasome activity in primary AML cells; type: cell-based, human
Experimental: Proteasome activity of primary acute myeloid leukemia (AML) blasts or normal peripheral blood stem cells (PBSC) after twenty hours of treatment with clioquinol (CQ), or an equimolar concentration of […] and CuCl2 (Cu). After treatment, the preferential chymotrypsin-like substrate Suc-LLVY-AMC was added and the rate of free AMC was measured over time with a florescent spectrophotometric plate reader (excitation=380 nm, emission=460 nm). Cellular proteins were extracted from cells with lysis buffer (50 mM HEPES pH 7.5, 150 mM NaCl, 2 mM ATP, and 1% Triton X-100). The chymotrypsin-like activity of the proteasome was measured by incubating equal amounts of protein with the preferential chymotrypsin-like substrate Suc-LLVY-AMC in assay buffer (50 mM Tris-HCl, pH 7.5, 150 mM NaCl) for two hours. After incubation, […] and the rate of free AMC was measured over time with a florescent spectrophotometric plate reader (excitation=380 nm, emission=460 nm). The inventors examined the effect of clioquinol and copper on primary AML cells and normal hematopoietic cells. Primary AML were obtained from the peripheral blood of patients with AML. Normal hematopoietic stem cells (PBSC) were obtained from the peripheral blood of volunteers donating stem cells for allotransplant. […] After incubation, cell lysates were prepared and the enzymatic activity of the proteasome measured as above.

[5] = tested on: cyclin D2; assay: Immunoblotting of cyclin D2 in myeloma and leukemia cells; type: cell-based; conditions: low micromolar concentrations
From the text: as §1

[6] = tested on: acute leukemia cell lines; assay: Cell viability (MTS assay), acute leukemia cell lines; type: cell-based; conditions: 6/7 AML cell lines, forty-eight hours; read-out: IC50 (cell death)
Experimental: as §2

Oc1c(I)cc(Cl)c2cccnc12 [clioquinol, 5-chloro-7-iodo-8-hydroxyquinoline]
expression of p21 [1]: increased expression | chymotrypsin-like activity of the proteasome [2]: inhibited chymotrypsin-like activity at low micromolar concentrations | potency of clioquinol [3]: increased the potency of clioquinol | enzymatic activity of the proteasome [4]: inhibited the proteasome | levels of cyclin D2 [5]: reduced levels of cyclin D2 | IC50 [6]: < 20 µM
